Measurements reported in the NIST ThermoML archive (doi:10.1021/acs.jced.6b00606).
Numbers after ± are expanded uncertainties.

How the values were obtained:
[1] = molar heat capacity at constant pressure; conditions: 101.33 kPa, Liquid, Extra sensitive DSC
[2] = Liquid; for speed of sound: 100 kPa, Frequency=3 MHz, Sing-around technique in a fixed-path interferometer; for mass density: 101.33 kPa, Vibrating tube method

Row | molar heat capacity at constant pressure ([1]; 293.15 K) [J/K/mol] | molar heat capacity at constant pressure ([1]; 298.15 K) [J/K/mol] | molar heat capacity at constant pressure ([1]; 303.15 K) [J/K/mol] | molar heat capacity at constant pressure ([1]; 308.15 K) [J/K/mol] | speed of sound ([2]; 293.15 K) [m/s] | mass density ([2]; 293.15 K) [kg/m3] | speed of sound ([2]; 298.15 K) [m/s] | mass density ([2]; 298.15 K) [kg/m3] | speed of sound ([2]; 303.15 K) [m/s] | mass density ([2]; 303.15 K) [kg/m3] | speed of sound ([2]; 308.15 K) [m/s] | mass density ([2]; 308.15 K) [kg/m3] | Compound
1 | 151.62 ± 5.9 | 152.76 ± 5.9 | 153.92 ± 6 | 155.09 ± 6 | 1367.8 ± 1.5 | 1033.59 ± 1 | 1346 ± 1.5 | 1027.94 ± 1 | 1324.4 ± 1.5 | 1022.28 ± 1 | 1302.5 ± 1.5 | 1016.59 ± 1 | C1COCCO1 [1,4-dioxane]
2 | 201.11 ± 7.8 | 202.01 ± 7.8 | 203.21 ± 7.9 | 204.51 ± 7.9 | 1477.3 ± 1.6 | 951.85 ± 1 | 1455 ± 1.6 | 947.62 ± 1 | 1432.4 ± 1.6 | 943.38 ± 1 | 1409.6 ± 1.6 | 939.14 ± 1 | O=C1CCCCCC1 [cycloheptanone]
3 | 176.17 ± 6.8 | 178.27 ± 6.9 | 180.38 ± 7 | 182.46 ± 7.1 | 1431.2 ± 1.3 | 947.38 ± 1 | 1415.5 ± 1.3 | 942.92 ± 1 | 1395.1 ± 1.3 | 938.07 ± 1 | 1375.1 ± 1.3 | 933.19 ± 1 | O=C1CCCCC1 [cyclohexanone]
4 | 148.03 ± 5.7 | 149.68 ± 5.8 | 151.18 ± 5.9 | 153.01 ± 5.9 | 1293 ± 1.4 | 884.23 ± 1 | 1269.7 ± 1.4 | 879.09 ± 1 | 1246.7 ± 1.4 | 873.91 ± 1 | 1224.3 ± 1.4 | 868.75 ± 1 | C1CCOCC1 [tetrahydropyran]
